Patent US20230061736A1, “GPR119 AGONISTS” (Kallyope, Inc., priority 2019, published 2023)

Target: T1, human GPR119 (hGPR119) (Homo sapiens, UniProt Q8TDV5)
T1 construct: expressed in transfected cells
T1 sequence (Q8TDV5 1-335): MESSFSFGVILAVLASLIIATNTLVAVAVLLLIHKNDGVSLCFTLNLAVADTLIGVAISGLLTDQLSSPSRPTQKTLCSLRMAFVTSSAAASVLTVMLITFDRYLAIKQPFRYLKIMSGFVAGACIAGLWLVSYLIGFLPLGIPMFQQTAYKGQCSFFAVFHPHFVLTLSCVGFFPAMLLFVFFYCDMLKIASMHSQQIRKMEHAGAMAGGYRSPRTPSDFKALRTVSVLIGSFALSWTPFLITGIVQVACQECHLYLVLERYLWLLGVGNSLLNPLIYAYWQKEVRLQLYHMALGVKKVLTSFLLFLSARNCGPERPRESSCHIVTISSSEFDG
Assay: cAMP accumulation assay (cAMP Gs dynamic HTRF kit)
Format: cell-based
Conditions: CHO-K1 cells stably expressing hGPR119, 4-parameter fit; for Emax: 1 h, % activity normalized to Max/Min controls; for EC50: cAMP accumulation
How it was run: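 CHO-K1 cells stably expressing hGPR119, used as assay-ready frozen stocks at ~10,000 cells/well, exposed to compound dose-response in stimulation buffer with Tween 80 for 60 min at 37° C. cAMP read by HTRF (665/620 nm ratio), normalised to Max/Min controls; EC50 and Max activity from 4-parameter fit.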

Emax [%]	EC50 [nM]	SMILES
≥ 130	≤ 100	O=C(Cc1ccc(OCCCC2CCN(c3ncc(Cl)cn3)CC2)cc1F)N1CC[C@@H](CNC(CO)(CO)CO)C1 [Example 148, 2-[4-[3-[1-(5-chloropyrimidin-2-yl)-4-piperidyl]propoxy]-2-fluoro-phenyl]-1-[(3S)-3-[[[2-hydroxy-1,1-bis(hydroxymethyl)ethyl]amino]methyl]pyrrolidin-1-yl]ethanone]
≥ 130	≤ 100	O=C(Cc1c(F)cc(OCCCC2CC3(CCN(c4ncc(Cl)cn4)CC3)C2)cc1F)N1CC(CNC[C@H](O)[C@@H](O)[C@H](O)[C@H](O)CO)C1 [Example 116, 2-[4-[3-[7-(5-chloropyrimidin-2-yl)-7-azaspiro[3.5]nonan-2-yl]propoxy]-2,6-difluoro-phenyl]-1-[3-[[[(2S,3R,4R,5R)-2,3,4,5,6-pentahydroxyhexyl]amino]methyl]azetidin-1-yl]ethanone]
50 to 100	1000 to 10000	CC(C)OC(=O)N1CCC2(CCC2CCOc2cc(F)c(CC(=O)N3CC(CNC[C@H](O)[C@@H](O)[C@H](O)[C@H](O)CO)C3)c(F)c2)CC1 (stereo partly drawn) [Example 141, isopropyl 3-[2-[3,5-difluoro-4-[2-oxo-2-[3-[[[(2S,3R,4R,5R)-2,3,4,5,6-pentahydroxyhexyl]amino]methyl]azetidin-1-yl]ethyl]phenoxy]ethyl]-7-azaspiro[3.5]nonane-7-carboxylate]
100 to 130	≤ 100	O=C(Cc1ccc(OCCCC2CCN(c3ncc(Cl)cn3)CC2)cc1F)N1CC(CNC[C@@H](O)[C@H](O)[C@H](O)CO)C1 [Example 167, 2-[4-[3-[1-(5-chloropyrimidin-2-yl)-4-piperidyl]propoxy]-2-fluoro-phenyl]-1-[3-[[[(2R,38,4R)-2,3,4,5-tetrahydroxypentyl]amino]methyl]azetidin-1-yl]ethanone]
100 to 130	≤ 100	O=C(Cc1ccc(OCCCC2CCN(c3ncc(Cl)cn3)CC2)cc1F)N1CC(CN2C[C@@H](O)[C@H](O)C2)C1 (stereo in doubt) [Example 47, 2-[4-[3-[1-(5-chloropyrimidin-2-yl)-4-piperidyl]propoxy]-2-fluoro-phenyl]-1-[3-[[rac-(3R,4R)-3,4-dihydroxypyrrolidin-1-yl]methyl]azetidin-1-yl]ethanone]
≥ 130	1000 to 10000	O=C(Cc1ccc(OCCCC2CCN(c3ncc(Cl)cn3)CC2)cc1F)NCCCS(=O)(=O)O [Example 11, 3-[[2-[4-[3-[1-(5-chloropyrimidin-2-yl)-4-piperidyl]propoxy]-2-fluoro-phenyl]acetyl]amino]propane-1-sulfonic acid]
100 to 130	≤ 100	O=C(Cc1c(F)cc(OCCCC2CCN(c3ncc(Cl)cn3)CC2)cc1F)N1CCC(O)(CNCC(CO)(CO)CO)C1 (stereo not drawn) [Example 188, 2-[4-[3-[1-(5-chloropyrimidin-2-yl)-4-piperidyl]propoxy]-2,6-difluoro-phenyl]-1-[3-hydroxy-3-[[[3-hydroxy-2,2-bis(hydroxymethyl)propyl]amino]methyl]pyrrolidin-1-yl]ethanone]

Continued, compound first:

SMILES	Emax [%]	EC50 [nM]
CC(C)OC(=O)N1CCC2(CC1)CC(CCCOc1ccc(CC(=O)N3CC(CNC[C@H](O)[C@@H](O)[C@H](O)[C@H](O)CO)C3)c(F)c1)C2 [Example 117, isopropyl 2-[3-[3-fluoro-4-[2-oxo-2-[3-[[[(2S,3R,4R,5R)-2,3,4,5,6-pentahydroxyhexyl]amino]methyl]azetidin-1-yl]ethyl]phenoxy]propyl]-7-azaspiro[3.5]nonane-7-carboxylate]	100 to 130	100 to 1000
O=C(OC[C@@H]1C[C@@H]1C1CCN(c2ncc(Cl)cn2)CC1)c1ccc(CC(=O)N2CC(CNC[C@H](O)[C@@H](O)[C@H](O)[C@H](O)CO)C2)c(F)c1 (racemic) [Example 95, (1R,2R)-2-[1-(5-chloropyrimidin-2-yl)-4-piperidyl]cyclopropyl]methyl 3-fluoro-4-[2-oxo-2-[3-[[[rac-(2S,3R,4R,5R)-2,3,4,5,6-pentahydroxyhexyl]amino]methyl]azetidin-1-yl]ethyl]benzoate]	100 to 130	100 to 1000
O=C(Cc1ccc(OCCCC2CCN(c3ncc(Cl)cn3)CC2)cc1F)N1CC(CNC[C@H](O)[C@H](O)[C@H](O)CO)C1 [Example 165, 2-[4-[3-[1-(5-chloropyrimidin-2-yl)-4-piperidyl]propoxy]-2-fluoro-phenyl]-1-[3-[[[(2S,3S,4R)-2,3,4,5-tetrahydroxypentyl]amino]methyl]azetidin-1-yl]ethanone]	100 to 130	≤ 100
O=C(Cc1ccc(OCCCC2CCN(c3ncc(Cl)cn3)CC2)cc1F)N1CC[C@@H](CNCC(O)(CO)CO)C1 [Example 99, 2-[4-[3-[1-(5-chloropyrimidin-2-yl)-4-piperidyl]propoxy]-2-fluoro-phenyl]-1-[(3S)-3-[[[2,3-dihydroxy-2-(hydroxymethyl)propyl]amino]methyl]pyrrolidin-1-yl]ethanone]	≥ 130	≤ 100
COCc1cnc(N2CCC([C@H]3C[C@H]3COCc3ccc(CC(=O)N4CC(CNC[C@H](O)[C@@H](O)[C@H](O)[C@H](O)CO)C4)c(F)c3)CC2)nc1 [Example 96, 2-[2-fluoro-4-[[(1R,2R)-2-[1-[5-(methoxymethyl)pyrimidin-2-yl]-4-piperidyl]cyclopropyl]methoxymethyl]phenyl]-1-[3-[[[(2S,3R,4R,5R)-2,3,4,5,6-pentahydroxyhexyl]amino]methyl]azetidin-1-yl]ethanone]	100 to 130	100 to 1000
CCCc1cnc(N2CCC(CCCOc3ccc(CC(=O)N4CC(CNCC(CO)CO)C4)c(F)c3)CC2)nc1 [Example 70, 2-(2-fluoro-4-(3-(1-(5-propylpyrimidin-2-yl)piperidin-4-yl)propoxy)phenyl)-1-(3-(((3-hydroxy-2-(hydroxymethyl)propyl)amino)methyl)azetidin-1-yl)ethan-1-one]	100 to 130	≤ 100
O=C(CC1CN(C(=O)Cc2ccc(OCCCC3CCN(c4ncc(Cl)cn4)CC3)cc2F)C1)NCC(O)(CO)CO [Example 33, 2-[1-[2-[4-[3-[1-(5-chloropyrimidin-2-yl)-4-piperidyl]propoxy]-2-fluoro-phenyl]acetyl]azetidin-3-yl]-N-[2,3-dihydroxy-2-(hydroxymethyl)propyl]acetamide]	≥ 130	100 to 1000
CCOc1cnc(N2CCC(CCCOc3ccc(CC(=O)N4CC[C@@H](CNC(CO)(CO)CO)C4)c(F)c3)CC2)nc1 [Example 152, 2-[4-[3-[1-(5-ethoxypyrimidin-2-yl)-4-piperidyl]propoxy]-2-fluoro-phenyl]-1-[(3S)-3-[[[2-hydroxy-1,1-bis(hydroxymethyl)ethyl]amino]methyl]pyrrolidin-1-yl]ethanone]	≥ 130	≤ 100
O=C(Cc1ccc(COCC2CC23CCN(c2ncc(Cl)cn2)CC3)cc1F)N1CC(CNC[C@H](O)[C@@H](O)[C@H](O)[C@H](O)CO)C1 (stereo partly drawn) [Example 111, 2-[4-[[6-(5-chloropyrimidin-2-yl)-6-azaspiro[2.5]octan-2-yl]methoxymethyl]-2-fluoro-phenyl]-1-[3-[[[(2S,3R,4R,5R)-2,3,4,5,6-pentahydroxyhexyl]amino]methyl]azetidin-1-yl]ethanone]	50 to 100	1000 to 10000
O=C(NCCNCCC1CN(C(=O)Cc2ccc(OCCCC3CCN(c4ncc(Cl)cn4)CC3)cc2F)C1)NC(CO)(CO)CO [Example 60, 1-(2-((2-(1-(2-(4-(3-(1-(5-chloropyrimidin-2-yl)piperidin-4-yl)propoxy)-2-fluorophenyl)acetyl)azetidin-3-yl)ethyl)amino)ethyl)-3-(1,3-dihydroxy-2-(hydroxymethyl)propan-2-yl)urea]	≥ 130	100 to 1000
O=C(CCC1CN(C(=O)Cc2c(F)cc(OCCCC3CCN(c4ncc(Cl)cn4)CC3)cc2F)C1)NCC(O)(CO)CO [Example 36, 3-[1-[2-[4-[3-[1-(5-chloropyrimidin-2-yl)-4-piperidyl]propoxy]-2,6-difluoro-phenyl]acetyl]azetidin-3-yl]-N-[2,3-dihydroxy-2-(hydroxymethyl)propyl]propanamide]	100 to 130	≤ 100
NCCOCCOCCNCC1CN(C(=O)Cc2ccc(OCCCC3CCN(c4ncc(Cl)cn4)CC3)cc2F)C1 [Example 52, 1-[3-[[2-[2-(2-aminoethoxy)ethoxy]ethylamino]methyl]azetidin-1-yl]-2-[4-[3-[1-(5-chloropyrimidin-2-yl)-4-piperidyl]propoxy]-2-fluoro-phenyl]ethanone]	100 to 130	100 to 1000
O=C(Cc1ccc(OCCC2CCC23CCN(c2ncc(Cl)cn2)CC3)cc1F)N1CC(CNC[C@H](O)[C@@H](O)[C@H](O)[C@H](O)CO)C1 (stereo partly drawn) [Example 138, 2-[4-[2-[7-(5-chloropyrimidin-2-yl)-7-azaspiro[3.5]nonan-3-yl]ethoxy]-2-fluoro-phenyl]-1-[3-[[[(2S,3R,4R,5R)-2,3,4,5,6-pentahydroxyhexyl]amino]methyl]azetidin-1-yl]ethanone]	50 to 100	1000 to 10000
COCC1(CNC[C@H](O)[C@@H](O)[C@H](O)[C@H](O)CO)CCN(C(=O)Cc2ccc(OCCCC3CCN(c4ncc(Cl)cn4)CC3)cc2F)C1 (stereo partly drawn) [Example 121, 2-[4-[3-[1-(5-chloropyrimidin-2-yl)-4-piperidyl]propoxy]-2-fluoro-phenyl]-1-[3-(methoxymethyl)-3-[[[r(2S,3R,4R,5R)-2,3,4,5,6-pentahydroxyhexyl]amino]methyl]pyrrolidin-1-yl]ethanone]	100 to 130	≤ 100
